Reference: ChEMBL document CHEMBL1201862, “PubChem BioAssay data set” (2004)
The source made the active and inactive calls.

How the values were obtained:
[1] = inhibition of ARNT PAS-B/TACC3 complex formation – biochemical, AlphaScreen, cherry-picked samples, confirmation (AID 651703); type: functional, Homo sapiens;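 further: His-tagged ARNT PAS-B domain paired with GST-TACC3 E629A dimer coactivator fragment; potency of inhibitors that break up the complex and lower AlphaScreen signal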
Protein Wnt-3a = Protein Wnt-3a (Mus musculus, UniProt P27467); experiment: SAR analysis of small molecule antagonists of Gli-SUFU in a Wnt3a luminescent reporter assay.; type: functional
[2] = viability loss in mouse NIH3T3 cells – cell-based, CellTiter-Glo luminescence, dry powder, cytotoxicity control for PglD inhibitor project, dose response (AID 652044); type: functional
[3] = target: Low molecular weight phosphotyrosine protein phosphatase (Homo sapiens, UniProt P24666); type: functional; conditions: read-out: IC50_Mean
[4] = target: T1, Carboxy-terminal domain RNA polymerase II polypeptide A small phosphatase 1 (Homo sapiens, UniProt Q9GZU7); experiment: CTDSP1 inhibitors, concentration-response, biochemical, absorbance readout, ultra-high-throughput screen actives (AID 540297); type: functional
T1 sequence (Q9GZU7 whole entry): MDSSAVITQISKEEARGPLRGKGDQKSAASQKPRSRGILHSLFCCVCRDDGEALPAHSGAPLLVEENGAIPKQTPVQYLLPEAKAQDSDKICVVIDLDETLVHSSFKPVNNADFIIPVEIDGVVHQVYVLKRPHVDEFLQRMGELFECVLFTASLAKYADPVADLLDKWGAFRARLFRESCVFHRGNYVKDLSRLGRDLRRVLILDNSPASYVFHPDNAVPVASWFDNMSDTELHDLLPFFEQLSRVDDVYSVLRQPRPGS

[5] = Cytotoxicity screening for potential Inhibitors of Bacterial Capsule Biogenesis (4).; type: functional
[6] = activation of miR-122 Renilla sensor silencing – cell-based, Huh7 psiCHECK-miR122, Renilla luciferase, cherry-picked, dose response (AID 651956); type: functional;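 further: huh7 hepatoma cells stably carrying a psiCHECK-2 miR-122 sensor plasmid; renilla luciferase signal reporting endogenous miR-122 activity after 48 h compound exposure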
[7] = TNFa-induced NF-kB reporter signal decrease – HEK293 LMP1 reporter cells, dry powder, set 2, selectivity assay for EBV LMP1 NF-kB inhibitor project, dose response (AID 624369); type: functional
[8] = Fluorescence-based cell-based high throughput dose response assay for inhibitors of the interaction of nucleotide-binding oligomerization domain containing 2 (NOD2) and the receptor-interacting serine-threonine kinase 2 (RIPK2).; type: functional; conditions: Homo sapiens
[9] = target: G-protein coupled receptor 55 (Homo sapiens, UniProt Q9Y2T6); experiment: selective activators of receptor GPR55 – imaging, U2OS cells, beta-arrestin-GFP redistribution, primary screen (AID 1961); type: functional
Beta Lactamase = Beta Lactamase (Pseudomonas aeruginosa, UniProt Q932Y6); experiment: BLA reporter interference, concentration series – BLA reporter cells, FRET fluorescence, artefact control for NOD2-RIPK2 interaction inhibitor project, dose response (AID 651552); type: functional, cell-based
Vero = experiment: cells; type: functional; conditions: Chlorocebus sabaeus
[10] = viability of PTEN-deleted HCT116 cells – cell-based, HCT116 PTEN knockout, dose response (AID 1047); type: functional;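 further: HCT116 colon tumor cells with PTEN knocked out; cells exposed to compound for 60 hours before readout; potency for loss of cell viability measured by luminescence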
[11] = viability of HCT116 lacking mutant beta-catenin – cell-based, human colon tumor, dose response (AID 1045); type: functional;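 further: HCT116 colon tumor cells with beta catenin knocked out; cells exposed to compound for 60 hours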
[12] = target: Nuclear receptor subfamily 5 group A member 2 (Homo sapiens, UniProt O00482); type: functional, cell-based;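 further: HEK293T cells transfected with LRH-1 and a StAR promoter luciferase reporter; potency for inhibitors that lower LRH-1 driven reporter light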
Steroidogenic factor 1 = Steroidogenic factor 1 (Homo sapiens, UniProt Q13285); experiment: Counterscreen for inverse agonists of the liver receptor homolog-1 (LRH-1; NR5A2): Luminescence-based cell-based high throughput dose response assay to identify inverse agonists of the Steroidogenic Factor 1 Nuclear Receptor (SF1; NR5A1).; type: functional
[13] = nonselective StAR promoter luciferase inhibitors – cell-based, luminescence, luciferase reporter, counter-screen for LRH-1 inverse agonist project, dose response (AID 651969); type: functional
[14] = target: Mitochondrial peptide methionine sulfoxide reductase (Bos taurus, UniProt P54149); type: functional;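 further: absorbance read-out, biochemical high-throughput dose-response screen for MsrA inhibitors, confirmatory; recombinant bovine MsrA coupled to E. coli TrxB with NADPH and selenocystamine; potency is for inhibitors of MsrA activity on DMSO substrate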
[15] = inhibitors acting on PAX2 in cells – cell-based, plate reader, dry powder samples, selectivity assay for PAX8 inhibitor project, dose response (AID 743048); type: functional;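 further: HEK293 cells carrying a WT1 promoter luciferase reporter driven by expressed Pax2; potency is for inhibition of Pax2 driven reporter signal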
[16] = COV434 cell viability loss – plate reader, dry powder, SA7, cytotoxicity control for PAX8 inhibitor project, dose response (AID 743145); type: functional, cell-based
[17] = PAX8-dependent cell viability loss – plate reader, dry powder, dose response (AID 743049); type: functional, cell-based

Steroidogenic factor 1, sequence (Q13285 whole entry): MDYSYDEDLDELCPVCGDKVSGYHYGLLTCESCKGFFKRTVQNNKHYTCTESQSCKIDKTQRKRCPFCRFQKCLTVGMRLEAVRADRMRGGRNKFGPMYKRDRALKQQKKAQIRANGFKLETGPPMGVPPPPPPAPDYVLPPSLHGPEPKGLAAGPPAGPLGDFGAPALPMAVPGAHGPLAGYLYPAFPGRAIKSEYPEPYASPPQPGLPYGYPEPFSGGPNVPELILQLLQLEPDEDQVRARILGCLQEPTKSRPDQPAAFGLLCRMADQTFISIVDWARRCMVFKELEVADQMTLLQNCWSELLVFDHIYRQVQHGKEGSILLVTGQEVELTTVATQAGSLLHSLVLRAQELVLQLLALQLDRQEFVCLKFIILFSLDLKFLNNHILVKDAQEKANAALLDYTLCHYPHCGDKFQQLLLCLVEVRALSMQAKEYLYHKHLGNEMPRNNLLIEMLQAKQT
Beta Lactamase, sequence (Q932Y6 whole entry): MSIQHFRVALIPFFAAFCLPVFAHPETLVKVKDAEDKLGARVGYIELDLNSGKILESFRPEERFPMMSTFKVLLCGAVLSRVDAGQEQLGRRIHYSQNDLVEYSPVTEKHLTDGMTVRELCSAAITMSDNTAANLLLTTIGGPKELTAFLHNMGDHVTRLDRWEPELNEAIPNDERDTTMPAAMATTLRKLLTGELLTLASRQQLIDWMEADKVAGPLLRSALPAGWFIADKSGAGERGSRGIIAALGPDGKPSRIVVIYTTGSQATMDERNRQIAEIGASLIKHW
G-protein coupled receptor 55, sequence (Q9Y2T6 whole entry): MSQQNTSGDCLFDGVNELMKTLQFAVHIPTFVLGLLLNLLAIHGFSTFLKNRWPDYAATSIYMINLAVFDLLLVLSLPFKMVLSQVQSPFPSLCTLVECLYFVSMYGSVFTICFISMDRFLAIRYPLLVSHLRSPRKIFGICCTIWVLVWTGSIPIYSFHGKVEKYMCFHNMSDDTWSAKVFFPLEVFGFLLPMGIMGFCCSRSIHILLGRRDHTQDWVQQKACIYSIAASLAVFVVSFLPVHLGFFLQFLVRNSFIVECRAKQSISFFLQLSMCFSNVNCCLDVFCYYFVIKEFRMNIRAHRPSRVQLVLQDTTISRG
Mitochondrial peptide methionine sulfoxide reductase, sequence (P54149 whole entry): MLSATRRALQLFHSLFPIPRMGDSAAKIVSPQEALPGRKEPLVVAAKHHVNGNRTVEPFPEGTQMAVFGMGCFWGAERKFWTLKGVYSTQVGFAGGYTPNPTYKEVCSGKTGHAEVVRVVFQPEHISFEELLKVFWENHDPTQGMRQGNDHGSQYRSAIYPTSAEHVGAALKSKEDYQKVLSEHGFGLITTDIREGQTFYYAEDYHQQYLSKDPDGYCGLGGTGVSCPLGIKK
Protein Wnt-3a, sequence (P27467 whole entry): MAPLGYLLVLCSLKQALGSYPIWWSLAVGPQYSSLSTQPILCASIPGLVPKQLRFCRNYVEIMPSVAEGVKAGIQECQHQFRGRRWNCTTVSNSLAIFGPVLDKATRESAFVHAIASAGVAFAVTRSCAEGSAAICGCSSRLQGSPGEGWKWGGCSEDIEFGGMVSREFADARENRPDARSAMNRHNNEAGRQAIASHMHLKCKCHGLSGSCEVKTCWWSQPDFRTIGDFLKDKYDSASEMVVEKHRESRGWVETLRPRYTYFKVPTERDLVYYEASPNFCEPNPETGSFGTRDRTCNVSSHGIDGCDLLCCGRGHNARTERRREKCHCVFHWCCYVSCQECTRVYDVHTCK
Low molecular weight phosphotyrosine protein phosphatase, sequence (P24666 whole entry, the tested form may be a part): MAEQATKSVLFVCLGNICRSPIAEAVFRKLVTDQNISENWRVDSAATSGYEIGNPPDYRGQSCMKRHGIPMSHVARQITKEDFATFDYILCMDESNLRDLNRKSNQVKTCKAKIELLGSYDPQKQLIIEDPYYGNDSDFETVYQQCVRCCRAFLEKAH
Nuclear receptor subfamily 5 group A member 2, sequence (O00482 whole entry): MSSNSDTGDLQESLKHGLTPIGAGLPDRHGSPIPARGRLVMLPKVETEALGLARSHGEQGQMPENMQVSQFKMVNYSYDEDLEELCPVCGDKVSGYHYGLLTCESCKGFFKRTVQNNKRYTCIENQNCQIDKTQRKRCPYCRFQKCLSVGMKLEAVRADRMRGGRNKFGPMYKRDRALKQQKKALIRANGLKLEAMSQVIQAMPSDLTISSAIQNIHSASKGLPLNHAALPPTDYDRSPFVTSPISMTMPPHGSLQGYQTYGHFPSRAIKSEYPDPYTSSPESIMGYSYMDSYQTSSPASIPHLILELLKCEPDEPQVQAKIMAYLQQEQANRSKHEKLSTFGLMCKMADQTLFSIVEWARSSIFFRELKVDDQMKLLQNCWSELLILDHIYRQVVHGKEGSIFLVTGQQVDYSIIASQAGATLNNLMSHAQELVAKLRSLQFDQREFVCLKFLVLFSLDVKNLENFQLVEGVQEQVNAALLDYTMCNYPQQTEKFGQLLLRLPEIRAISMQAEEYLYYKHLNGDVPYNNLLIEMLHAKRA

Cc1cccc(NC(=O)C(C)N2CC=C(c3ccccc3)CC2)c1 (stereo unspecified)
AC50 [1]: 88.4 µM (active)

O=C(Nc1cc(N2CCCC2)ncn1)c1ccccc1F
IC50 (Protein Wnt-3a): 0.696 µM (active)

O=C(C[C@@H]1CC[C@H]2[C@@H](COC[C@H](O)CN2C(=O)Nc2cccc(F)c2)O1)NCc1ccccc1F
AC50 [2]: > 52 µM (inactive)

O=C(Nc1nc2ccsc2c(=O)s1)c1ccc(Cl)cc1
IC50 [3]: 39.3 µM (inactive) | IC50 [4]: 5.43 µM (active)

CC(C)(C)OC(=O)Nc1nc2ccc(C(=O)Nc3ccnc(Cl)c3)cc2s1
CC50 [5]: > 300 µM (inactive)

CC(C)c1ccc(NC(=O)C[C@H]2CC[C@H]3[C@@H](COc4ccc(NC(=O)Nc5ccc(F)c(F)c5)cc4C(=O)N3C)O2)cc1
AC50 [6]: 14.3 µM (active) | AbsAC35 [7]: 91.94 µM

N#Cc1ccccc1Cn1cc(/C=C/[N+](=O)[O-])c2ccccc21
IC50 [8]: 10.3 µM (inactive) | EC50 [9]: 3.11 µM (active) | IC50 (Beta Lactamase): 24.4 µM (inactive) | CC50 (Vero): 8.92 µM (active) | EC50 [10]: 17.8 µM (active) | EC50 [11]: 18 µM (active)

N=c1sccn1CC(=O)Nc1ccc(S(N)(=O)=O)cc1
IC50 [12]: 2.32 µM (active) | IC50 (Steroidogenic factor 1): 3.81 µM (active) | IC50 [13]: 35.9 µM (inactive)

O=C(C(=O)c1ccc(O)c(O)c1)c1ccc(O)c(O)c1
IC50 [14]: 112 µM (inactive)

COCC(=O)N1[C@H](CO)[C@H](c2ccc(-c3cccnc3)cc2)[C@@H]1C#N
AC50 [15]: > 32 µM (inactive) | AC50 [16]: 0.00824 µM (active) | AC50 [17]: > 70 µM (inactive)
